Assay results taken from PubChem BioAssay (NCI).
Where “and” joins values, the source holds several entries; their conditions need not be identical. Identical values can stand only once.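 Five concentrations, 48 hours, 96-well plates. GI50 = concentration required for 50% inhibition of growth. At the TGI there is no net growth.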

Columns and labels:
Test in all cases: NCI tumour cell line growth inhibition, 48 h
[1] = system: KM12 colon
[2] = system: HCT-15 colon
[3] = system: NCI-H226 lung
[4] = system: OVCAR-5 ovarian
[5] = system: UACC-257 melanoma
[6] = system: UACC-62 melanoma
[7] = system: IGROV1 ovarian
[8] = system: HCC-2998 colon
[9] = system: SR leukemia
[10] = system: HOP-62 NSCLC

Row | Compound | GI50 [1] | TGI [1] | GI50 [2] | TGI [2] | GI50 [3] | TGI [3] | GI50 [4] | TGI [4] | GI50 [5] | TGI [5] | GI50 [6] | TGI [6] | GI50 [7] | TGI [7] | GI50 [8] | TGI [8] | GI50 [9] | TGI [9] | GI50 [10] | TGI [10]
1 | CC/C(=C(\c1ccc(O)cc1)c1ccc(OCCNC)cc1)c1ccccc1 | 1.7 µM and 1.64 µM and 1.81 µM | 3.15 µM and 3.14 µM and 3.49 µM | 1.8 µM and 1.56 µM | 3.92 µM and 3.2 µM and 3.71 µM | 9.26 µM and 6.49 µM and 4.33 µM | 28.4 µM and 23.7 µM and 17 µM | 2.82 µM and 2.44 µM and 2.09 µM | 8.23 µM and 6.35 µM and 4.77 µM | 1.93 µM and 1.64 µM and 1.7 µM | 3.82 µM and 3.35 µM and 3.28 µM | 1.66 µM and 1.65 µM and 1.78 µM | 3.41 µM and 3.24 µM and 3.44 µM | 1.93 µM and 1.65 µM and 2.38 µM | 4.13 µM and 3.25 µM and 5.4 µM | 1.8 µM and 1.78 µM and 1.88 µM | 3.28 µM and 3.23 µM and 3.62 µM | 2.42 µM and 1.63 µM and 2.22 µM | 5.85 µM and 4.11 µM and 5.54 µM | 1.88 µM and 1.83 µM and 1.71 µM | 3.35 µM and 3.32 µM and 3.42 µM
2 | O=C(N/N=C/c1cc2ccccc2c2ccccc12)c1cc(O)c(O)c(O)c1 | 8.24 µM | 22.9 µM | 3.22 µM | 25.4 µM | 4.47 µM | 28.4 µM | 8.85 µM | 25.7 µM | 10.2 µM | 24.6 µM | 2.75 µM | 9.4 µM | 4.14 µM | 20.5 µM | 8.54 µM | 22.4 µM | 3.72 µM | > 100 µM | 3.37 µM | 12.4 µM
3 | O=S(=O)(Nc1ccc(Cl)c(C(F)(F)F)c1)c1ccc(-c2cnc(C3CC3)o2)cc1 | 0.187 µM | 7.36 µM | 0.156 µM | 5.57 µM | 1.41 µM | 4.73 µM | 1.51 µM | 7.24 µM | 1.29 µM | 7.93 µM | 0.203 µM | 2.2 µM | 0.507 µM | 5.96 µM | 1.09 µM | 3.31 µM | 0.0822 µM | > 23 µM | 0.615 µM | 4.88 µM
4 | Cc1oc2c(c1C(=O)c1ccccc1)C(=O)c1ccccc1C2=O |  | 18.7 µM |  | 18.7 µM |  | 23.3 µM |  | 31.5 µM |  | 10.5 µM |  | 7.72 µM |  | 15.9 µM |  | 29.1 µM |  | > 36.6 µM |  | 22.4 µM
5 | CCOC(=O)c1c(C)c2c(n1C)CSc1cc(S(=O)(=O)c3ccccc3)c(=O)[nH]c1-2 | 28.8 µM | > 100 µM | 25.8 µM | > 100 µM | 23.9 µM | > 100 µM | 45.6 µM | > 100 µM | 34.5 µM | > 100 µM | 14.2 µM | 69.1 µM | 16.7 µM | > 100 µM | 35.2 µM | > 100 µM | 29.3 µM | > 100 µM | 31.5 µM | 89.9 µM
6 | CN(C)CC1(C)CC/C(=C\c2ccc3c(c2)OCO3)C1=O (centres undefined) |  | > 100 µM |  | > 100 µM |  | > 100 µM |  | > 100 µM |  | > 100 µM |  | > 100 µM |  | > 100 µM |  | > 100 µM |  | > 100 µM |  | > 100 µM
7 | O=C1CCC(=O)c2cc(Br)ccc2N1 |  | > 100 µM |  | > 100 µM |  | > 100 µM |  | > 100 µM |  | > 100 µM |  | > 100 µM |  | > 100 µM |  | > 100 µM |  | 63.1 µM |  | > 100 µM
8 | CS(=O)(=O)c1ccc(C(F)(F)F)cc1NC(=O)Nc1cnc(Oc2ccc(-c3cc(Cl)cnc3N)cc2)nc1 |  | 3.6 µM | 2.74 µM | 13.4 µM | 2.75 µM | 26.3 µM | 3.1 µM | 15.9 µM | 3.07 µM | 11.5 µM | 1.82 µM | 4.72 µM | 1.73 µM | 6.04 µM | 2.79 µM | 8.72 µM | 1.98 µM | 4.66 µM | 3.27 µM | 12.5 µM
9 | O=C1Nc2ccccc2SC1C1SC(=S)N(Cc2ccccc2)C1=O (centres undefined) | 0.458 µM | 1.99 µM | 3.37 µM | 16 µM | 17 µM | 35 µM | 20.2 µM | 37 µM | 20.1 µM | 39 µM | 10.6 µM | 23.3 µM | 3.37 µM | 16.5 µM | 5.33 µM | 17.1 µM | 4.03 µM | > 78.2 µM | 6.62 µM | 19.7 µM
10 | O=C(Nc1ccc(-n2cc(-c3ccncc3)c(-c3ccc(Cl)c(O)c3)n2)cc1)c1cc(Cl)cc(Cl)c1 | 2.72 µM | > 29.4 µM | 1.31 µM | > 21.8 µM | > 100 µM | > 100 µM | 8.42 µM | 97.5 µM | 5.68 µM | > 100 µM | 2.96 µM | > 28.1 µM | > 100 µM | > 100 µM | 3.41 µM | > 23.6 µM | 3.33 µM | > 100 µM | 2.49 µM | 18.8 µM
11 | O=C(Oc1ccc([N+](=O)[O-])cc1)N1CCC(C(O)(c2ccc3c(c2)OCO3)c2ccc3c(c2)OCO3)CC1 | > 100 µM | > 100 µM | > 100 µM | > 100 µM | > 100 µM | > 100 µM | > 100 µM | > 100 µM | > 100 µM | > 100 µM | > 100 µM | > 100 µM | > 100 µM | > 100 µM | > 100 µM | > 100 µM | > 100 µM | > 100 µM | > 100 µM | > 100 µM
12 | COCCN1C2=CCCCC2=Nc2c(N)nc(N)nc21 |  | > 100 µM |  | > 100 µM |  | > 100 µM |  | > 100 µM |  | > 100 µM |  | > 100 µM |  | > 100 µM |  | > 100 µM |  | > 100 µM |  | > 100 µM
13 | C#C[C@]1(O)CC[C@H]2[C@@H]3CC=C4c5nc(Nc6ccc(OC)cc6OC)sc5CC[C@]4(C)[C@H]3CC[C@@]21C | 2.07 µM | 5.57 µM | 1.3 µM | 4.2 µM | 2.3 µM | 6.23 µM | 2.53 µM | 12.2 µM | 1.57 µM | 4.99 µM | 1.76 µM | 5.04 µM | 1.99 µM | 7.11 µM | 2.17 µM | 5.59 µM | 0.523 µM | 11.2 µM | 1.93 µM | 7.37 µM
14 | CNC(=O)OCc1nc(S(C)=O)n(C)c1COC(=O)NC (centres undefined) |  | > 100 µM |  | > 100 µM |  | > 100 µM |  | > 100 µM |  | > 100 µM |  | > 65.9 µM |  | > 82.1 µM |  | > 100 µM |  | > 100 µM |  | > 100 µM
15 | C=CC(=O)Nc1cc2c(Nc3ccc(OCc4ccccn4)c(Cl)c3)ncnc2cc1OCCN1CCOCC1 | 5.04 µM | > 100 µM | 2.49 µM | 14.9 µM | 6.56 µM | > 83.6 µM | 15.6 µM | > 100 µM | 10.6 µM | > 100 µM | 2.85 µM | 17.4 µM | 0.125 µM | 4.01 µM | 2.2 µM | 11.1 µM | 2.62 µM | > 100 µM | 3.2 µM | > 100 µM
16 | Cc1cccc(NC(=O)CC2C(=O)Nc3ccccc3S2(=O)=O)c1C (centres undefined) |  | > 100 µM |  | > 100 µM |  | 58.3 µM |  | > 100 µM |  | > 100 µM |  | 46.3 µM |  | 60 µM |  | > 100 µM |  | 48 µM |  | 52.8 µM
17 | N#Cc1ccc(-n2cnc(NC(=O)[C@H]3CCN(C#N)C3)c2)cc1 | 1.58 µM | 11.8 µM | 2.2 µM | > 100 µM | 2.51 µM | 9.85 µM | 3.3 µM | > 100 µM | 1.94 µM | 10.1 µM | 0.892 µM | 4.47 µM | 2.01 µM | > 100 µM | 2.28 µM | 18.6 µM | 0.375 µM | > 100 µM | 2.28 µM | 15.5 µM
18 | O=C(O)[C@@H]1C[C@@H](O)CN1 |  | > 100 µM |  | > 100 µM |  | > 100 µM |  | > 100 µM |  | > 100 µM |  | > 100 µM |  | > 100 µM |  | > 100 µM |  | > 100 µM |  | > 100 µM
19 | C/C=C(/C)C(=O)OC1C=C(CO)C(=O)C(OC(=O)/C(C)=C\C)C1C(C)C (centres undefined) | 1.45 µM | 3.02 µM | 0.46 µM | 1.86 µM | 2.41 µM | 6.01 µM | 0.976 µM | 2.5 µM | 1.28 µM | 2.65 µM | 0.644 µM | 1.98 µM | 0.96 µM | 2.43 µM | 1.71 µM | 3.27 µM | 0.315 µM | 3.69 µM | 2.03 µM | 3.73 µM
